Results from patent publication US5776932A, “1,3,5-tribsubstituted indazole derivatives, processes for preparing, and for pharmacological treatment therewith” (Arzneimittelwerk Dresden G.m.b.H., priority 1996, dated 1998).

Key:
[1] = system: SRS-A bronchoconstriction in guinea-pigs sensitized with ovalbumin; experiment: SRS-A bronchoconstriction in anaesthetized, ovalbumin-sensitized guinea-pigs after inhalation of antigen; format: in vivo; details: -2 hrs, 1% OA, 20 inspirations
Description: For this purpose, guinea-pigs are actively sensitized against ovalbumin (OA) with 20 μg OA+20 mg Al(OH)3 in 0.5 ml, administered intraperitoneally (i.p.) and a booster dose of the same is administered 14 days later. One week after the booster dose, the animals are i.p. anaesthetized with urethane and connected to an apparatus (Mumed Physiological Recorder 800) for the determination of pulmonary function parameters. The animals are pretreated with mepyramine to antagonize the histamine, with indomethacin to inhibit the formation of prostaglandins, and with propanolol to eliminate β-adrenergic mechanisms. If an allergic reaction is induced after this treatment, the associated bronchospam is extensively attributable to the effect of leukotrienes.
Before the experiment the test substances were administered orally two hours before the challenge. After an equilibration period an asthmatic challenge attack is induced by the nebulization of a 1% ovalbumin solution over 20 inspirations.
The drop in dynamic compliance is used as a suitable and well reproducible parameter for characterizing the action of leukotrienes. Under control conditions, after pretreatment and ovalbumin challenge, guinea-pigs react with a slow drop in compliance of c. 30-40% over 15 minutes.

[2] = target: T1, arachidonate-5-lipoxygenase (Rattus norvegicus, UniProt P12527); experiment: Inhibition of 5-lipoxygenase in prepared macrophages from Wistar rats; format: cell-based; details: quadruple determinations, mean IC50, read-out: IC50 (50% inhibition of 5-lipoxygenase)
T1 construct: using prepared macrophages from Wistar rats; endogenous in cells; host or cells: prepared macrophages from Wistar rats
T1 sequence (P12527 1-673): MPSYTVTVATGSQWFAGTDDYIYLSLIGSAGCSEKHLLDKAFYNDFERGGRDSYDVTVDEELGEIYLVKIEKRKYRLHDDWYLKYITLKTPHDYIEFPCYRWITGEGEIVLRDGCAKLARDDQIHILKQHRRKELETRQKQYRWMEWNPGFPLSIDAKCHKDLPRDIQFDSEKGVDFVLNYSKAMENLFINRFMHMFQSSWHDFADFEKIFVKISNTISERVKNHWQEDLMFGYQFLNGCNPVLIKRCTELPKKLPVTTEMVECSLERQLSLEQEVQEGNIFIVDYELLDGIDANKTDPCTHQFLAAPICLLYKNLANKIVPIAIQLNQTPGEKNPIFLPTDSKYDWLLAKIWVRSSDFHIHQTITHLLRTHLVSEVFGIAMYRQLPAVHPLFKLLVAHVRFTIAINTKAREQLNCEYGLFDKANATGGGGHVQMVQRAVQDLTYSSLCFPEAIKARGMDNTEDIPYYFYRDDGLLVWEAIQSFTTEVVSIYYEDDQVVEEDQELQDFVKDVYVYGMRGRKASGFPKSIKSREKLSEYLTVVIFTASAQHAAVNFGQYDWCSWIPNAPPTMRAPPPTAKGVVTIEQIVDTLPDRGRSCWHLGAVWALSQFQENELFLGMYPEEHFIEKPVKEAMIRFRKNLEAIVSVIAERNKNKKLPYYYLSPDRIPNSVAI
From the text: Murphy, R. C. and Matthews, W. R., Purification and Characterization of Leukotrienes from Mastocytoma Cells, Methods in Enzymology, 86, pp. 409-416.
Argentiere, D. D., Ritchie, D. M. et al., Tepoxalin: A Dual Cyclooxygenase/5-Lipoxygenase Inhibitor of Arachidonic Acid Metabolism with Potent Anti-inflammatory Activity and a Favorable Gastrointestinal Profile, The Journal of Pharmacology and Experimental Therapeutics, Vol. 271, No. 3, 1399-1408, 1994.
Carter, G. W., Young, P. R. et al., 5-Lipoxygenase Inhibitory activity of Zileuton, The Journal of Pharmacology and Experimental Therapeutics, Vol. 256, No. 3, 1991.
The experiments were all conducted as quadruple determinations, by combining four partial experiments in each case were combined to determine the mean IC50 value.

late phase eosinophilia = experiment: Inhibition of late phase eosinophilia 24 hours after the inhalational ovalbumin challenge on actively sensitized guinea-pigs; format: in vivo; details: -2 h; for EOS, B (eosinophils in the group treated with the substance, with challenge): x ± s
From the text: Eosinophilic granulocytes play an important part in the transition of allergic diseases, e.g. bronchial asthma, to the chronic stage. Thus the bronchoalveolar lavage fluid (BAL) contains an increased number of eosinophils a few hours after an allergen-induced asthmatic attack. Eosinophils are expected to play an important part in cell damage since they contain histotoxic proteins, like major basic protein (MBP) and eosinophil cation protein (ECP), in their granula. It is also assumed that substances which prevent the infiltration of eosinophils have a therapeutic action against allergic diseases like bronchial asthma.
The inhibition of eosinophil infiltration by the substances was tested in vivo on guinea-pigs actively sensitized against ovalbumin by the substantenous administration of 10 μg of OA, with 1 μg of aluminum hydroxide adjuvant, three weeks before the beginning of the experiment, and a booster dose containing the same amount of OA and aluminum hydroxide was administrated substantaneously one week before the beginning of the experiment. Three weeks after the first sensitization, the animals were placed in a plastic box and exposed to an aerosol of 0.5% OA dissolved in a physiological saline solution. The nebulization time was 20-30 seconds. After 24 hours the animals were intraperitoneally anaesthetized with 1.5 g/kg body weight ethylurethane and a bronchioalveolar lavage was performed with 2×5 ml of physiological saline solution. The lavage fluid was collected and centrifuged at 400 G for 10 minutes and the cell pellet was then resuspended in 1 ml of physiological saline solution. The eosinophils were microscopically counted in a Neubauer chamber after staining using the No. 5877 Becton-Dickinson test kit for eosinophilia. The number of eosinophils was indicated in millions per animal. Each test was also carried out with two control groups with and without antigen challenge.
The percentage inhibition of the eosinophilia in the experimental groups treated with the substance is calculated by the following formula:
(A-C)-(B-C)/(A-C)×100=% inhibition
The test substances were administered orally or intraperitoneally as a triturate in 0.5% 5-hydroxyethylcellulose two hours before the antigen challenge.

[3] = system: tracheal segments from actively sensitized guinea-pigs; experiment: Inhibition of the antigen (ovalbumin)-induced contraction of isolated tracheal segments from actively sensitized guinea-pigs; parameters: species or system guinea-pig; details: Cavia porcellus; under mepyramine and indomethacin protection; carbachol = 100%
Description: For this purpose, isolated tracheal segments from guinea-pigs actively sensitized against ovalbumin by the s.c. administration of 10 μg of ovalbumin with 1 mg of aluminum hydroxide adjuvant, three weeks before removal of the organ, and a booster dose of the same amount of ovalbumin and aluminum hydroxide s.c. one week before removal of the organ. The segments were placed in organ baths filled with a nutrient solution aerated with carbogen which is a mixture of 95% oxygen and 5% carbon dioxide, and kept at 37° C., and were connected to isometric force transducers. After preincubation with mepyramine to eliminate histamine, and indomethacin for the inhibition of cyclooxygenase, 5×10^-7 mol/l carbachol (carbamylcholine chloride) was added and a contraction was induced. 10 μg/ml ovalbumin as an allergen was then added to the bath liquid and the maximum contraction of the tracheal segments which was thereby induced was correlated with the effect of the carbachol as control (=100%). The test substances were added to the organ bath 30 minutes before the allergen-induced contraction. Table 2 below indicates the IC50 values, i.e. the concentrations which cause a 50% inhibition of the contraction of isolated tracheal segments from the guinea-pig. The IC50 values were determined by testing 3-4 concentrations on 4-8 organs in each case.

## COc1ccc2c(c1)c(O)nn2Cc1ccc(OCc2ccc3ccccc3n2)cc1 [Example 50]
[1]; 5.0 mg/kg oral
  % drop in dyn. compliance: 22 ± 10%
  % inhibition: 45%
[1]; 10.0 mg/kg oral
  % drop in dyn. compliance: 12 ± 11%
  % inhibition: 70%
[2]
  IC50: 44 nM
Late phase eosinophilia; 10 mg/kg i.p.
  % inhibition (eosinophilia): 46.0%
  EOS, B (eosinophils in the group treated with the substance, with challenge): 3.8 ± 2.8 mill./animal
Late phase eosinophilia; 30 mg/kg p.o.
  % inhibition (eosinophilia): 34.0%
  EOS, B (eosinophils in the group treated with the substance, with challenge): 6.0 ± 3.4 mill./animal
[3]
  IC50: 2900 nM
